From PubChem BioAssay AID1918934 (Molecular Pharmacology Branch, DTP, NCI, 2023) come the findings set out here.

Molecules are shown by their SMILES. Values joined by “and” are separate entries in the source; they are usually repeats but may differ in a detail not shown here. Equal values may be shown once.

The experiment has as its system 292921-168-R-J2-PDC complex spheroid viability. Kind of experiment: Anticancer human tumor 292921-168-R-J2-PDC patient-derived pancreatic carcinoma cell line growth inhibition. Particulars: for viability, T/C: stronger effect = lower value. In a few lines:
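Drug combinations with the LSD1 inhibitor iadademstat tested on tumor cells co-cultured as spheroids with endothelial cells and mesenchymal stem cells. Concentrations descended in half-log increments from clinical Cmax or 10 microM.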

Where [1] appears, read: curve of first compound, second compound 0.1 µM.
Setting [2] is: curve of first compound, second compound 0.316 µM.
Setting [3] is: curve of first compound, second compound 1 µM.
The mark [4] stands for this setting: curve of first compound, second compound 3.16 µM.
Setting [5] is: curve of first compound, second compound 10 µM.
[6] abbreviates: second compound 0.1 µM, first compound 0.00949 µM.
The mark [7] stands for this setting: second compound 0.1 µM, first compound 0.03 µM.
[8] abbreviates: second compound 0.1 µM, first compound 0.0949 µM.
[9] abbreviates: second compound 0.1 µM, first compound 0.3 µM.
The mark [10] stands for this setting: second compound 0.316 µM, first compound 0.00949 µM.
Setting [11] is: second compound 0.316 µM, first compound 0.03 µM.
[12] abbreviates: second compound 0.316 µM, first compound 0.0949 µM.
Setting [13] is: second compound 0.316 µM, first compound 0.3 µM.
Where [14] appears, read: second compound 1 µM, first compound 0.00949 µM.
Setting [15] is: second compound 1 µM, first compound 0.03 µM.
Setting [16] is: second compound 1 µM, first compound 0.0949 µM.
Where [17] appears, read: second compound 1 µM, first compound 0.3 µM.
[18] abbreviates: second compound 3.16 µM, first compound 0.00949 µM.
The mark [19] stands for this setting: second compound 3.16 µM, first compound 0.03 µM.
The mark [20] stands for this setting: second compound 3.16 µM, first compound 0.0949 µM.
Where [21] appears, read: second compound 3.16 µM, first compound 0.3 µM.
Setting [22] is: second compound 10 µM, first compound 0.00949 µM.
Setting [23] is: second compound 10 µM, first compound 0.03 µM.
[24] abbreviates: second compound 10 µM, first compound 0.0949 µM.
Where [25] appears, read: second compound 10 µM, first compound 0.3 µM.
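Also: seven day compound exposure before luminescent viability read.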
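For viability, T/C in this document: 100% = DMSO vehicle control wells.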

Take `Nc1ccn(C2OC(CO)C(O)C2(F)F)c(=O)n1` (centres undefined) + NC1CC1c1ccc(-c2cccc(O)c2)cc1: the IC50 under setting [1] was below 0.949 nM; the IC50 under setting [2] is below 0.949 nM; the IC50 under setting [3] was below 0.949 nM; the IC50 under setting [4] is below 0.949 nM; the IC50 under setting [5] was below 0.949 nM. For the same compound, the viability, T/C is, setting by setting: (second compound 0.1 µM, first compound 0.000949 µM) 29.5%; (second compound 0.1 µM, first compound 0.003 µM) 10.6%; under setting [6], 6.54%; under setting [7], 5.59%; under setting [8], 7.33%; under setting [9], 5.81%. Besides, the viability, T/C is, setting by setting: (second compound 0.316 µM, first compound 0.000949 µM) 30.2%; (second compound 0.316 µM, first compound 0.003 µM) 9.61%; under setting [10], 4.8%; under setting [11], 5.72%; under setting [12], 5.73%; under setting [13], 5.51%. Moreover, the viability, T/C reads like this: (second compound 1 µM, first compound 0.000949 µM) 27%; (second compound 1 µM, first compound 0.003 µM) 8.35%; under setting [14], 5.25%; under setting [15], 5.86%; under setting [16], 5.98%; under setting [17], 6.01%. The viability, T/C is, setting by setting: (second compound 3.16 µM, first compound 0.000949 µM) 27.8%; (second compound 3.16 µM, first compound 0.003 µM) 10%; under setting [18], 5.33%; under setting [19], 6.76%; under setting [20], 5.59%; under setting [21], 6.51%. Further, the viability, T/C (second compound 10 µM, first compound 0.000949 µM) was 28.4%; the viability, T/C (second compound 10 µM, first compound 0.003 µM) is 11.2%; the viability, T/C under setting [22] is 7.89%; the viability, T/C under setting [23] was 7.46%; the viability, T/C under setting [24] is 7.74%; the viability, T/C under setting [25] was 7.58%.
Consider `CC[C@@]1(O)C(=O)OCc2c1cc1n(c2=O)Cc2cc3c(CN(C)C)c(O)ccc3nc2-1` + NC1CCC(NC2CC2c2ccccc2)CC1, for which the IC50 by setting is: under setting [1], 2.11 nM; under setting [2], 1.65 nM; under setting [3], 1.58 nM; under setting [4], 1.07 nM; under setting [5], 0.869 nM. The viability, T/C (second compound 0.1 µM, first compound 0.000316 µM) is 64.5%; the viability, T/C (second compound 0.1 µM, first compound 0.001 µM) is 60.2%; the viability, T/C (second compound 0.1 µM, first compound 0.00316 µM) is 44.6%; the viability, T/C (second compound 0.1 µM, first compound 0.01 µM) was 19.7%; the viability, T/C (second compound 0.1 µM, first compound 0.0316 µM) was 8.14%; the viability, T/C (second compound 0.1 µM, first compound 0.1 µM) is 4.05%. The viability, T/C was 61.4% (second compound 0.316 µM, first compound 0.000316 µM); 61% (second compound 0.316 µM, first compound 0.001 µM); 37.9% (second compound 0.316 µM, first compound 0.00316 µM); 18.5% (second compound 0.316 µM, first compound 0.01 µM); 8.83% (second compound 0.316 µM, first compound 0.0316 µM); 4.07% (second compound 0.316 µM, first compound 0.1 µM). The viability, T/C is 61.2% (second compound 1 µM, first compound 0.000316 µM); 56.4% (second compound 1 µM, first compound 0.001 µM); 40.9% (second compound 1 µM, first compound 0.00316 µM); 19.4% (second compound 1 µM, first compound 0.01 µM); 10.6% (second compound 1 µM, first compound 0.0316 µM); 4.35% (second compound 1 µM, first compound 0.1 µM). Also, the viability, T/C by setting is: (second compound 3.16 µM, first compound 0.000316 µM) 54.9%; (second compound 3.16 µM, first compound 0.001 µM) 50.8%; (second compound 3.16 µM, first compound 0.00316 µM) 38.2%; (second compound 3.16 µM, first compound 0.01 µM) 18.5%; (second compound 3.16 µM, first compound 0.0316 µM) 8.6%; (second compound 3.16 µM, first compound 0.1 µM) 3.74%. The viability, T/C is, setting by setting: (second compound 10 µM, first compound 0.000316 µM) 51.4%; (second compound 10 µM, first compound 0.001 µM) 50.9%; (second compound 10 µM, first compound 0.00316 µM) 36.9%; (second compound 10 µM, first compound 0.01 µM) 15.6%; (second compound 10 µM, first compound 0.0316 µM) 8.03%; (second compound 10 µM, first compound 0.1 µM) 3.69%.
Turning to `CCN(c1cc(-c2ccc(CN3CCOCC3)cc2)cc(C(=O)NCc2c(C)cc(C)[nH]c2=O)c1C)C1CCOCC1` + NC1CC1c1ccc(-c2cccc(O)c2)cc1, the IC50 under setting [1] is 1080 nM; the IC50 under setting [2] came to 1020 nM; the IC50 under setting [3] turned out to be 1100 nM; the 50% inhibitory concentration (IC50) under setting [4] worked out at 1070 nM; the concentration for half-maximal inhibition (IC50) under setting [5] was 763 nM. In addition, the viability, T/C runs as follows: under setting [6], 77.2%; under setting [7], 79.2%; under setting [8], 81.9%; under setting [9], 77.1%; (second compound 0.1 µM, first compound 0.949 µM) 53.5%; (second compound 0.1 µM, first compound 3 µM) 22.1%. Moreover, the viability, T/C reads like this: under setting [10], 69.5%; under setting [11], 82.7%; under setting [12], 77.5%; under setting [13], 71.7%; (second compound 0.316 µM, first compound 0.949 µM) 51.9%; (second compound 0.316 µM, first compound 3 µM) 21.7%. For the same compound, the viability, T/C under setting [14] is 68.6%; the viability, T/C under setting [15] is 72%; the viability, T/C under setting [16] was 68.8%; the viability, T/C under setting [17] is 68.4%; the viability, T/C (second compound 1 µM, first compound 0.949 µM) was 54.5%; the viability, T/C (second compound 1 µM, first compound 3 µM) was 19.4%. The viability, T/C was 70.7% under setting [18]; 75.3% under setting [19]; 70.2% under setting [20]; 64.5% under setting [21]; 54.1% (second compound 3.16 µM, first compound 0.949 µM); 22.3% (second compound 3.16 µM, first compound 3 µM). For the same compound, the viability, T/C by setting is: under setting [22], 62.7%; under setting [23], 62.5%; under setting [24], 62.5%; under setting [25], 60.2%; (second compound 10 µM, first compound 0.949 µM) 47.6%; (second compound 10 µM, first compound 3 µM) 21.8%.
Turning to `Nc1ncn(C2CC(O)C(CO)S2)c(=O)n1` (centres undefined), the viability, T/C (compound 0.000949 µM) was 96.5% and 102%; the viability, T/C (compound 0.003 µM) is 104% and 92.4%; the viability, T/C (compound 0.00949 µM) was 84% and 88.4%; the viability, T/C (compound 0.03 µM) was 72.4% and 80.4%; the viability, T/C (compound 0.0949 µM) was 43.5% and 45.3%; the viability, T/C (compound 0.3 µM) was 13.5% and 13.6%. Besides, the IC50 (curve of compound) is 72.5 nM and 83.7 nM.
On to `CC1(C)CCC(CN2CCN(c3ccc(C(=O)NS(=O)(=O)c4ccc(NCC5CCOCC5)c([N+](=O)[O-])c4)c(Oc4cnc5[nH]ccc5c4)c3)CC2)=C(c2ccc(Cl)cc2)C1`, for which the viability, T/C by setting is: (compound 0.0316 µM) 105% and 108%; (compound 0.1 µM) 114%; (compound 0.316 µM) 110% and 108%; (compound 1 µM) 98.1% and 94.9%; (compound 3.16 µM) 20% and 19.2%; (compound 10 µM) 0.32% and 0.33%. Also, the IC50 (curve of compound) was 2030 nM and 1980 nM.

By IC50 is commonly meant the midpoint of a concentration-inhibition curve. What is called viability, T/C is the ratio of treated to control.
